The source of these data is US8324427B2, “Substances analogous to MK8383 and agricultural and horticultural disease control agents” (Meiji Seika Kaisha, Ltd., priority 2008, dated 2012).

A short description of data set [1]: Evaluation of photostability (residual ratio after exposure to light). The format is physicochemical. Conditions: dry film exposed to sunlight lamp 24 hr, 25° C., humidity 60%, 30,000 lux, UV 300 to 400 μW/cm^2; HPLC; 0 hr = 100%. As to the method:
The compounds obtained in Examples 1 to 3 were dissolved in acetone, and the concentration of the compounds was adjusted to 200 μg/mL (100 μg/mL for the compound of Example 3) to give test solutions. The photostability was determined by measuring the residual ratio of compound after exposure to light. The residual ratio was calculated by the following method. The test solution (500 μL) was dispensed in a glass Petri dish having a diameter of 5 cm, and the solvent was removed by evaporation under light shielding conditions to form a dry film. The dry film was exposed to a sunlight lamp within a chamber (temperature 25° C., humidity 60%) and was recovered 24 hr after the start of the exposure. The exposed film was washed with 500 μL of methanol and was analyzed by HPLC (manufactured by Nihon Waters K.K.). The residual ratio (concentration ratio after the elapse of each hour when the residual ratio at 0 hr was presumed to be 100%) was calculated by regarding the peak area as the concentration of the compound.

Data set [2] has as its system Botrytis cinerea. Description: Evaluation of control effect (preventive value) on cabbage leaf discs. The format is in vivo. Conditions: 100 ppm test solution sprayed on cabbage leaf discs; Botrytis cinerea spore inoculation; three days after the infection. As to the method:
The compounds obtained in Examples 1 to 3 were dissolved in acetone to bring the concentration of the compounds to 1 mg/mL. Ten-fold diluted Neoesterin (manufactured by KUMIAI CHEMICAL INDUSTRY CO., LTD.) (1 μL) was added to 20 μL of the solutions. Further, 180 μL of deionized water was added thereto to regulate the concentration to 100 ppm to prepare test solutions. The control effect was measured by measuring the preventive value of each of the test solutions. The preventive value was calculated by the following method. At the outset, leaves cut by a leaf punch off from the leaves at the third and fourth stages of cabbage were allowed to stand still on a multi-well plate. An appropriate amount of the test solution was sprayed followed by air drying. Next, a spore suspension (2.0×10^5 cells/mL) of Botrytis cinerea was prepared as an inoculating microorganism liquor and was inoculated by spraying in an amount of 20 mL per 7 to 10 multi-well plate. Infection with Botrytis cinerea was carried out in a light shielding chamber (temperature 21° C., humidity about 100%), and the preventive value was calculated three days after the infection. […] 0; No pathogenesis was found. 1; Slight pathogenesis was found. 2; Control effect was found as compared with untreated plot, although diseases were developed. 3; Phathogenesis equivalent to that in untreated plot was found. [formula]

Data set [3] has as its system Botrytis cinerea. As to the kind of experiment: Antimicrobial activity test (extension of hypha). The format is cell-based. Set-up: key to the marks not given beside the values. Conditions: final concentration 12.5 ppm, 3 days.
The next data set concerns Rhizoctonia solani. Description: Antimicrobial activity test (extension of hypha). Conditions: final concentration 12.5 ppm, 3 days. The data set is classed as cell-based. Also on record: key to the marks not given beside the values.
A further data set deals with Leptosphaeria nodorum. As to the kind of experiment: Antimicrobial activity test (extension of hypha). Conditions: final concentration 12.5 ppm, 3 days. The data set is classed as cell-based. Set-up: key to the marks not given beside the values.
For data set [4], the system named is Colletotrichum lagenarium. Description: Antimicrobial activity test (extension of hypha). The data set is classed as cell-based. Set-up: key to the marks not given beside the values. Conditions: final concentration 12.5 ppm, 3 days.
The test system of the next data set is Alternaria kikutiana. As to the kind of experiment: Antimicrobial activity test (extension of hypha). Conditions: final concentration 12.5 ppm, 3 days. The format is cell-based. Also on record: key to the marks not given beside the values.
Another data set deals with Pyricularia oryzae. The data set is classed as cell-based. Also on record: key to the marks not given beside the values. Conditions: final concentration 12.5 ppm, 3 days.
The next data set deals with Cercospora beticola. As to the kind of experiment: Antimicrobial activity test (extension of hypha). The format is cell-based. Set-up: key to the marks not given beside the values. Conditions: final concentration 12.5 ppm, 3 days.

On to `C/C=C(\C)[C@H]1[C@@H](/C=C/C=C/C(=O)O)[C@H]2[C@@H]([C@H]3C[C@]31C)[C@@H](O)CC[C@@H]2C` [Compound of Example 1, (2E,4E)-5-{(1aR,2R,3S,3aS,4S,7S,7aS,7bR)-2-[(E)-but-2-en-2-yl]-decahydro-7-hydroxy-1a,4-dimethyl-1H-cyclopropa[a]naphthalen-3-yl}penta-2,4-dienoic acid], for which the “Residual ratio after 24 hr” value in data set [1] is 100%. The molecule further came in with a Preventive value in the data set with Botrytis cinerea [2] of 92.

Regarding `C/C=C(\C)[C@H]1[C@@H](/C=C/C=C/C(=O)O)[C@H]2[C@@H](C[C@@H]1C)[C@@H](O)CC[C@@H]2C` [Compound of Example 2, (2E,4E)-5-{(1S,4S,4aS,5S,6R,7S,8aR)-6-[(E)-but-2-en-2-yl]-decahydro-1-hydroxy-4,7-dimethylnaphthalen-5-yl}penta-2,4-dienoic acid], the “Residual ratio after 24 hr” value in data set [1] is 108%. For the same molecule, in the data set with Botrytis cinerea [2], the Preventive value was found to be 100.

In the case of `C/C=C(/C)[C@H]1[C@@H](/C=C/C=C/C(=O)O)[C@H]2[C@@H](C[C@@H]1C)[C@@H](O)CC[C@@H]2C` [Compound of Example 3, (2E,4E)-5-{(1S,4S,4aS,5S,6R,7S,8aR)-6-[(Z)-but-2-en-2-yl]-decahydro-1-hydroxy-4,7-dimethylnaphthalen-5-yl}penta-2,4-dienoic acid], the Inhibition of extension result in the data set with Botrytis cinerea [3] is on record as “+++”; in the data set on Rhizoctonia solani, “+++”; in the data set with Leptosphaeria nodorum it was “++”; in data set [4], “++”; in the data set on Alternaria kikutiana, “++”; with Pyricularia oryzae, “++”. Moreover, the Inhibition of extension entry with Cercospora beticola is “+++”. Also, the “Residual ratio after 24 hr” value in data set [1] stood at 95%. In addition, in the data set with Botrytis cinerea [2], the Preventive value is recorded as 100.
